The values that follow are results of earlier work, collected in patent US20260345512A1, “TRANSDERMAL DELIVERY OF DEXTROMETHORPHAN” (SHINKEI THERAPEUTICS, INC., priority 2022, published 2026).

For data set [1] the following is noted: without enhancer.
The conditions of data set [2]: dextromethorphan alone.

Structures are written as SMILES.

For the molecule `C[C@]12CC[C@H]3[C@@H](CCC4=CC(=O)CC[C@@]43C)[C@@H]1CC[C@@H]2O` [testosterone], the “transdermal delivery rate relative to beta estradiol” value in data set [1] was “three orders of magnitude higher”.

With `COc1ccc2c(c1)[C@]13CCCC[C@@H]1[C@H](C2)N(C)CC3` [dextromethorphan], the “adverse reactions reported with use of the individual component” value in data set [2] is “drowsiness, dizziness, nervousness or restlessness, nausea, vomiting, and stomach pain”.
